Data: patent publication US20230072683A1, “PYRIDO-PYRIMIDIN DERIVATIVES AND PHARMACEUTICAL COMPOSITION, FOR USE IN PREVENTING OR TREATING PI3 KINASE RELATED DISEASES, COMPRISING SAME AS ACTIVE INGREDIENT” (BORYUNG PHARMACEUTICAL CO., LTD, priority 2019, published 2023)

Tests used:
DNA-PK(h) = DNA-PK(h) (Homo sapiens, UniProt P78527); assay: Evaluation of inhibitory activity against DNA-PK (HTRF kinase assay, GST-cMyc-p53 substrate); assay type: biochemical; details: compound concentration 0.01 μM; read-out: EXP_VALUE(% Inhibition) DNA-PK(h) 0.01 μM
How it was run: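 p53 Ser15 phosphorylation by human DNA-PK was measured by time-resolved FRET ratio (665/620 nm ×10000) using Eu-labelled anti-phospho-Ser15 and d2 anti-GST antibodies. Substrate GST-cMyc-p53 at 50 μM; Mg/ATP-initiated, 30 min at room temperature, EDTA stop.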

[1] = biological target: PI3K-δ (PI3K(p1108/p857) (h)) (Homo sapiens, UniProt O00329); assay: Evaluation of inhibitory activity against PI3K-δ (HTRF kinase assay); assay type: biochemical; details: compound concentration 0.01 μM; read-out: EXP_VALUE(% Inhibition) PI3K-δ 0.01 μM
How it was run: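 HTRF read-out (665/620 nm ratio ×10000) used Eu-labelled anti-GST, GST-tagged GRP1 PH domain and streptavidin-allophycocyanin after EDTA/PIP3 stop.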

Chain of PI3K-δ (PI3K(p1108/p857) (h)) (O00329 whole entry, the tested form may be a part): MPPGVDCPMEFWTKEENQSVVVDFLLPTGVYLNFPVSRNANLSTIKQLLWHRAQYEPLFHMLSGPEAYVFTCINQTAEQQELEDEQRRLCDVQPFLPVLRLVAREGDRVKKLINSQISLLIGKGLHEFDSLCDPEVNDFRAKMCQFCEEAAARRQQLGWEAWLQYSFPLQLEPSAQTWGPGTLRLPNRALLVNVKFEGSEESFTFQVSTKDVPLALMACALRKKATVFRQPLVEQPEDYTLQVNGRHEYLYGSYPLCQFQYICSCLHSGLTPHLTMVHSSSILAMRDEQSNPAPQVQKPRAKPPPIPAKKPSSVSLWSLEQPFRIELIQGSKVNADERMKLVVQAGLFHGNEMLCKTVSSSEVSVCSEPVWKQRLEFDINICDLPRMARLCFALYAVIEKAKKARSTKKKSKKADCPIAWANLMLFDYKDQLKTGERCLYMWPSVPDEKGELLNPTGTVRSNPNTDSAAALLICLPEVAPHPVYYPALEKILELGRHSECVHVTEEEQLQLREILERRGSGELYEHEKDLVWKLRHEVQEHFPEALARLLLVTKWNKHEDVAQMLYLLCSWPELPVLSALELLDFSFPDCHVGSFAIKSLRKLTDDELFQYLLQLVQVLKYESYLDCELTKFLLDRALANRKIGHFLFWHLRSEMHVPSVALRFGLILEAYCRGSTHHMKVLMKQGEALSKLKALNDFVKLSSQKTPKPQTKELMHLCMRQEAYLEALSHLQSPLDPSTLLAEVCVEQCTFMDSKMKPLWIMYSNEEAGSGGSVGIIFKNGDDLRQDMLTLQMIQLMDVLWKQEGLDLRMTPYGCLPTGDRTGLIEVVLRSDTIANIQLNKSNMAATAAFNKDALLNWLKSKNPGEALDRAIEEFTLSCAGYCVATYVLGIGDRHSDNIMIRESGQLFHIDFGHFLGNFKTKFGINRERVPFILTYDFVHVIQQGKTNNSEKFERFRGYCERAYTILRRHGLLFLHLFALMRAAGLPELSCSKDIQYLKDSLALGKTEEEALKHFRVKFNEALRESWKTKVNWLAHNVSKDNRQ
Chain of PI3K-δ (PI3K(p1108/p857) (h)) (P27986 whole entry partner, the tested form may be a part): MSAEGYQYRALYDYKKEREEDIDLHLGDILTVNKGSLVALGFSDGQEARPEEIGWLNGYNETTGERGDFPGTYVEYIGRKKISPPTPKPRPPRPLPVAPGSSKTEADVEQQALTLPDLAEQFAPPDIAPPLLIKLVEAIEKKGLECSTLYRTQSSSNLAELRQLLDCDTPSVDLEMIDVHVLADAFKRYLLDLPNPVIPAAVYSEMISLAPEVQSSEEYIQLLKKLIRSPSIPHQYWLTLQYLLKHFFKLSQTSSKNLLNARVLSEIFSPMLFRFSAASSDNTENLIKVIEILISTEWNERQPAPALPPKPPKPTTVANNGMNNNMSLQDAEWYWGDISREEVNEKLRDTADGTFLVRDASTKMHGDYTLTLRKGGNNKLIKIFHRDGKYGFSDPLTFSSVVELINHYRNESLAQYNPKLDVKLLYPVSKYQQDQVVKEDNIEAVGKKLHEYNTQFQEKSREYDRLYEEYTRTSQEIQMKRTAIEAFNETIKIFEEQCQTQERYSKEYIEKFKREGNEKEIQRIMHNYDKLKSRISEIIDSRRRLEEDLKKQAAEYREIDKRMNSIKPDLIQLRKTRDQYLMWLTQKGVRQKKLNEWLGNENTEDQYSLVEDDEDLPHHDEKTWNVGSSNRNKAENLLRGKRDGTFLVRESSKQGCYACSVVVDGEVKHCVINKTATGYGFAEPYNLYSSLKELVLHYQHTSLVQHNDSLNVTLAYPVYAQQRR

| SMILES | inhibition at 0.01 µM (DNA-PK(h)) | inhibition at 0.01 µM [1] |
| --- | --- | --- |
| C[C@H](Nc1ncnc2[nH]ccc(=O)c12)c1c(Cl)c2cccc(-c3cnc(OCc4ccccc4)nc3)c2c(=O)n1-c1ccccc1 [Example 146, (S)-4-((1-(8-(2-(benzyloxy)pyrimidin-5-yl)-4-chloro-1-oxo-2-phenyl-1,2-dihydroisoquinolin-3-yl)ethyl)amino)pyrido[2,3-d]pyrimidin-5(8H)-one] | 35% | 84% |
| C[C@H](Nc1ncnc2[nH]ccc(=O)c12)c1c(Cl)c2cccc(-c3ccc(OCC(F)(F)F)nc3)c2c(=O)n1-c1ccccc1 [Example 147, (S)-4-((1-(4-chloro-1-oxo-2-phenyl-8-(6-(2,2,2-trifluoroethoxy)pyridin-3-yl)-1,2-dihydroisoquinolin-3-yl)ethyl)amino)pyrido[2,3-d]pyrimidin-5(8H)-one] | 48% | 69% |
| C[C@H](Nc1ncnc2[nH]ccc(=O)c12)c1c(Cl)c2cccc(-c3ccc(N4CCNCC4)cc3)c2c(=O)n1-c1ccccc1 [Example 148, (S)-4-((1-(4-chloro-1-oxo-2-phenyl-8-(4-(piperazin-1-yl)phenyl)-1,2-dihydroisoquinolin-3-yl)ethyl)amino)pyrido[2,3-d]pyrimidin-5(8H)-one] | 89% | 92% |
| COc1cc(-c2cccc3c(Cl)c([C@H](C)Nc4ncnc5c4c(=O)ccn5-c4ccnc(OC)c4)n(-c4ccccc4)c(=O)c23)ccn1 [Example 149, (S)-4-((1-(4-chloro-8-(2-methoxypyridin-4-yl)-1-oxo-2-phenyl-1,2-dihydroisoquinolin-3-yl)ethyl)amino)-8-(2-methoxypyridin-4-yl)pyrido[2,3-d]pyrimidin-5(8H)-one] | 7% | 2% |
| COc1cc(-c2cccc3c(Cl)c([C@H](C)Nc4ncnc5[nH]ccc(=O)c45)n(-c4ccccc4)c(=O)c23)ccn1 [Example 150, (S)-4-((1-(4-chloro-8-(2-methoxypyridin-4-yl)-1-oxo-2-phenyl-1,2-dihydroisoquinolin-3-yl)ethyl)amino)pyrido[2,3-d]pyrimidin-5(8H)-one] | 93% | 105% |
| CCCSc1ccc(-c2cccc3c(Cl)c([C@H](C)Nc4ncnc5[nH]ccc(=O)c45)n(-c4ccccc4)c(=O)c23)cc1 [Example 151, (S)-4-((1-(4-chloro-1-oxo-2-phenyl-8-(4-(propylthio)phenyl)-1,2-dihydroisoquinolin-3-yl)ethyl)amino)pyrido[2,3-d]pyrimidin-5(8H)-one] | 23% | 44% |
| C[C@H](Nc1ncnc2[nH]ccc(=O)c12)c1c(Cl)c2cccc(-c3ccc(SC4CC4)cc3)c2c(=O)n1-c1ccccc1 [Example 152, (S)-4-((1-(4-chloro-8-(4-(cyclopropylthio)phenyl)-1-oxo-2-phenyl-1,2-dihydroisoquinolin-3-yl)ethyl)amino)pyrido[2,3-d]pyrimidin-5(8H)-one] | 36% | 58% |
| C[C@H](Nc1ncnc2[nH]ccc(=O)c12)c1c(Cl)c2cccc(-c3cnc(C(F)(F)F)nc3)c2c(=O)n1-c1ccccc1 [Example 153, (S)-4-((1-(4-chloro-1-oxo-2-phenyl-8-(2-(trifluoromethyl)pyrimidin-5-yl)-1,2-dihydroisoquinolin-3-yl)ethyl)amino)pyrido[2,3-d]pyrimidin-5(8H)-one] | 46% | 77% |
| COc1cc(-c2cccc3c(Cl)c([C@H](C)Nc4ncnc5[nH]ccc(=O)c45)n(-c4ccccc4)c(=O)c23)cc(OC)c1F [Example 154, (S)-4-((1-(4-chloro-8-(4-fluoro-3,5-dimethoxyphenyl)-1-oxo-2-phenyl-1,2-dihydroisoquinolin-3-yl)ethyl)amino)pyrido[2,3-d]pyrimidin-5(8H)-one] | 71% | 89% |
| COc1ccc(-c2cccc3c(Cl)c([C@H](C)Nc4ncnc5[nH]ccc(=O)c45)n(-c4ccccc4)c(=O)c23)cc1OC [Example 155, (S)-4-((1-(4-chloro-8-(3,4-dimethoxyphenyl)-1-oxo-2-phenyl-1,2-dihydroisoquinolin-3-yl)ethyl)amino)pyrido[2,3-d]pyrimidin-5(8H)-one] | 87% | 95% |
| C[C@H](Nc1ncnc2[nH]ccc(=O)c12)c1c(Cl)c2cccc(C3=CCCC3)c2c(=O)n1-c1ccccc1 [Example 156, (S)-4-((1-(4-chloro-8-(cyclopent-1-en-1-yl)-1-oxo-2-phenyl-1,2-dihydroisoquinolin-3-yl)ethyl)amino)pyrido[2,3-d]pyrimidin-5(8H)-one] | 42% | 82% |
| COc1cc(OC(C)C)cc(-c2cccc3c(Cl)c([C@H](C)Nc4ncnc5[nH]ccc(=O)c45)n(-c4ccccc4)c(=O)c23)c1 [Example 157, (S)-4-((1-(4-chloro-8-(3-isopropoxy-5-methoxyphenyl)-1-oxo-2-phenyl-1,2-dihydroisoquinolin-3-yl)ethyl)amino)pyrido[2,3-d]pyrimidin-5(8H)-one] | 52% | 57% |
| COc1cc(OC(F)(F)F)cc(-c2cccc3c(Cl)c([C@H](C)Nc4ncnc5[nH]ccc(=O)c45)n(-c4ccccc4)c(=O)c23)c1 [Example 158, (S)-4-((1-(4-chloro-8-(3-methoxy-5-(trifluoromethoxy)phenyl)-1-oxo-2-phenyl-1,2-dihydroisoquinolin-3-yl)ethyl)amino)pyrido[2,3-d]pyrimidin-5(8H)-one] | 18% | 32% |

Other lines, results leading:

| inhibition at 0.01 µM (DNA-PK(h)) | inhibition at 0.01 µM [1] | SMILES |
| --- | --- | --- |
| 19% | 28% | COc1cc(-c2cccc3c(Cl)c([C@H](C)Nc4ncnc5[nH]ccc(=O)c45)n(-c4ccccc4)c(=O)c23)ccc1OC(F)(F)F [Example 159, (S)-4-((1-(4-chloro-8-(3-methoxy-4-(trifluoromethoxy)phenyl)-1-oxo-2-phenyl-1,2-dihydroisoquinolin-3-yl)ethyl)amino)pyrido[2,3-d]pyrimidin-5(8H)-one] |
| 74% | 94% | Cc1nc(-c2ccc(-c3cccc4c(Cl)c([C@H](C)Nc5ncnc6[nH]ccc(=O)c56)n(-c5ccccc5)c(=O)c34)cc2)no1 [Example 160, (S)-4-((1-(4-chloro-8-(4-(5-methyl-1,2,4-oxadiazol-3-yl)phenyl)-1-oxo-2-phenyl-1,2-dihydroisoquinolin-3-yl)ethyl)amino)pyrido[2,3-d]pyrimidin-5(8H)-one] |
| 7% | 24% | C[C@H](Nc1ncnc2[nH]ccc(=O)c12)c1c(Cl)c2cccc(-c3ccc(-c4noc(C(C)(C)C)n4)cc3)c2c(=O)n1-c1ccccc1 [Example 161, (S)-4-((1-(8-(4-(5-(tert-butyl)-1,2,4-oxadiazol-3-yl)phenyl)-4-chloro-1-oxo-2-phenyl-1,2-dihydroisoquinolin-3-yl)ethyl)amino)pyrido[2,3-d]pyrimidin-5(8H)-one] |
| 63% | 81% | C[C@H](Nc1ncnc2[nH]ccc(=O)c12)c1c(Cl)c2cccc(-c3ccc(OC4CCOCC4)nc3)c2c(=O)n1-c1ccccc1 [Example 162, (S)-4-((1-(4-chloro-1-oxo-2-phenyl-8-(6-((tetrahydro-2H-pyran-4-yl)oxy)pyridin-3-yl)-1,2-dihydroisoquinolin-3-yl)ethyl)amino)pyrido[2,3-d]pyrimidin-5(8H)-one] |
| 45% | 70% | C[C@H](Nc1ncnc2[nH]ccc(=O)c12)c1c(Cl)c2cccc(-c3ccc(OCC4CC4)nc3)c2c(=O)n1-c1ccccc1 [Example 163, (S)-4-((1-(4-chloro-8-(6-(cyclopropylmethoxy)pyridin-3-yl)-1-oxo-2-phenyl-1,2-dihydroisoquinolin-3-yl)ethyl)amino)pyrido[2,3-d]pyrimidin-5(8H)-one] |
| 20% | 46% | C[C@H](Nc1ncnc2[nH]ccc(=O)c12)c1c(Cl)c2cccc(-c3ccc(OCc4ccccc4)nc3)c2c(=O)n1-c1ccccc1 [Example 164, (S)-4-((1-(8-(6-(benzyloxy)pyridin-3-yl)-4-chloro-1-oxo-2-phenyl-1,2-dihydroisoquinolin-3-yl)ethyl)amino)pyrido[2,3-d]pyrimidin-5(8H)-one] |
| 91% | 96% | C[C@H](Nc1ncnc2[nH]ccc(=O)c12)c1c(Cl)c2cccc(-c3ccc(S(C)(=O)=O)cc3)c2c(=O)n1-c1ccccc1 [Example 165, (S)-4-((1-(4-chloro-8-(4-(methylsulfonyl)phenyl)-1-oxo-2-phenyl-1,2-dihydroisoquinolin-3-yl)ethyl)amino)pyrido[2,3-d]pyrimidin-5(8H)-one] |
| 67% | 59% | C[C@H](Nc1ncnc2[nH]ccc(=O)c12)c1c(Cl)c2cccc(-c3ccc(C(=O)O)cc3)c2c(=O)n1-c1ccccc1 [Example 166, (S)-4-(4-chloro-1-oxo-3-(1-((5-oxo-5,8-dihydropyrido[2,3-d]pyrimidin-4-yl)amino)ethyl)-2-phenyl-1,2-dihydroisoquinolin-8-yl)benzoic acid] |
| 81% | 44% | CNC(=O)c1ccc(-c2cccc3c(Cl)c([C@H](C)Nc4ncnc5[nH]ccc(=O)c45)n(-c4ccccc4)c(=O)c23)cc1 [Example 167, (S)-4-(4-chloro-1-oxo-3-(1-((5-oxo-5,8-dihydropyrido[2,3-d]pyrimidin-4-yl)amino)ethyl)-2-phenyl-1,2-dihydroisoquinolin-8-yl)-N-methylbenzamide] |
